Like-named read-outs stand apart in the source and are kept apart here.
Tested on: U-373MG cells
Type: cell-based, human

Compound	effect on the difference in plaque size between VSV-rp30 and VSV-G/GFP	effect on the difference in plaque size between VSV-rp30 and VSV-G/GFP (10 μM, 24 hrs)
tyrphostin 51	no significant effect on the difference in plaque size	–
CN[C@@H]1C[C@H]2O[C@@](C)([C@@H]1OC)n1c3ccccc3c3c4c(c5c6ccccc6n2c5c31)C(=O)NC4 [Staurosporine, staurosporine]	significant attenuation of the difference in plaque size	–
O=c1c(-c2ccc(O)cc2)coc2cc(O)cc(O)c12 [Genistein, genistein]	–	significantly attenuated the difference in plaque size

From patent US8481297B2 (priority 2009, dated 2013)
